Laboratory results as given in patent publication US20250333418A1, “PURINE COMPOUNDS, COMPOSITIONS COMPRISING THEM AND USES THEREOF” (Novo Nordisk A/S, priority 2022, published 2025).

What was measured:
human CB1 receptor [1] = target: T1, human CB1 receptor (Homo sapiens, UniProt P21554); experiment: bioSensAll GAPL-Gi2 BRET biosensor assay in HEK293 cells transfected with hCB1; test compound added before EC75-80 of agonist CP55,940 (0.1 nM); assay type: cell-based; conditions: vs CP55,940 0.1 nM (EC75-80), read-out: CB1 wt Gi2 IC50
T1 construct: expressed in transfected cells; host or cells: HEK293
T1 sequence (P21554 whole entry): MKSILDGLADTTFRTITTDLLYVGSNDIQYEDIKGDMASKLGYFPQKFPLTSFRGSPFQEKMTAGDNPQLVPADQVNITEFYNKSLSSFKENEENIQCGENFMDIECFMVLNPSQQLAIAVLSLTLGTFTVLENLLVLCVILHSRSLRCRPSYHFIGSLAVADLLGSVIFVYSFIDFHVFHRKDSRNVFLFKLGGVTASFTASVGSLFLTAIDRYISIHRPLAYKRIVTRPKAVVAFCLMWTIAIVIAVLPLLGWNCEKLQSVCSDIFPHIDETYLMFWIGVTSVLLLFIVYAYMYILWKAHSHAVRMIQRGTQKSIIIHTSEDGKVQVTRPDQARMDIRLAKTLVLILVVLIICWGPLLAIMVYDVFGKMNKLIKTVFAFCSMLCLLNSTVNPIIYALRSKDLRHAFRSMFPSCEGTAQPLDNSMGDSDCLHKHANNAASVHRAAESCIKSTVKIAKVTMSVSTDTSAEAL
Outline: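 Test compounds at 12 doses up to 600 nM preceded a 0.1 nM CP55,940 challenge in hCB1/GAPL-Gi2 HEK293 cells. After overnight 37° C incubation, methoxy e-coelenterazine (2 µM final) was added and the 515/400 nm BRET ratio normalized to positive and negative controls.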

human CB1 receptor [2] = target: T1, human CB1 receptor; experiment: bioSensAll β-arrestin2 plasma membrane translocation (+GRK2) BRET biosensor assay in HEK293 cells transfected with hCB1; test compound added before EC75-80 of agonist CP55,940 (100 nM); assay type: cell-based; conditions: βArrestin2 (+GRK2) BRET biosensor, vs CP55,940 100 nM (EC75-80), read-out: CB1 wt βarr2 IC50
Outline: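 Antagonist mode: compound at 12 concentrations up to 600 nM, then 100 nM CP55,940 3–5 min later, on hCB1-transfected HEK293 cells carrying the β-arrestin2 plasma-membrane biosensor plus GRK2. After overnight 37 °C incubation, 515/400 nm BRET ratio measured with 2 µM methoxy e-CTZ and standardized against positive/negative controls.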

SMILES | IC50 (human CB1 receptor [1]) [nM] | IC50 (human CB1 receptor [2]) [nM]
CN1C[C@H](F)C[C@H]1COc1nc(N2CCC(C)(C(N)=O)CC2)c2nc(-c3ccccc3Cl)n(-c3ccc(Cl)cc3)c2n1 [Compound 228] | 1.2 | 2.29
CNCCOc1nc(N2CCC(C(N)=O)CC2)c2nc(-c3ccccc3Cl)n(-c3ccc(Cl)cc3)c2n1 [Compound 156] | 54.7 | > 5000
C[C@@H](O)CNc1nc(N2CCC(C)(C(N)=O)CC2)c2nc(-c3ccccc3Cl)n(-c3ccc(Cl)cc3)c2n1 [Compound 83, 1-[8-(2-chlorophenyl)-9-(4-chlorophenyl)-2-[[(2R)-2-hydroxypropyl]amino]purin-6-yl]-4-methyl-piperidine-4-carboxamide] | 1.16 | 6.26
CC(C)(O)COc1nc(N2CCC(C)(C(N)=O)CC2)c2nc(-c3ccc(C#N)nc3)n(-c3ccc(Cl)cc3)c2n1 [Compound 109, 1-[9-(4-chlorophenyl)-8-(6-cyano-3-pyridyl)-2-(2-hydroxy-2-methyl-propoxy)purin-6-yl]-4-methyl-piperidine-4-carboxamide] | 13.2 | 61.5
CC(C)(O)COc1nc(N2C[C@@H]3C[C@H]2CO3)c2nc(-c3ccccc3Cl)n(-c3ccc(Cl)cc3)c2n1 [Compound 204] | 3.96 | 16.6
CC(C)OC1(C(N)=O)CCN(c2nc(N3CCC[C@H]3CO)nc3c2nc(-c2ccc(C#N)nc2)n3-c2ccc(Cl)cc2)CC1 [Compound 136, 1-[9-(4-chlorophenyl)-8-(6-cyano-3-pyridyl)-2-[(2S)-2-(hydroxymethyl)pyrrolidin-1-yl]purin-6-yl]-4-isopropoxy-piperidine-4-carboxamide] | 0.848 | 1.75
CN(CCO)c1nc(N2CCC(C)(O)CC2)c2nc(-c3ccccc3Cl)n(-c3ccc(Cl)cc3)c2n1 [Compound 181] | 0.181 | 0.592
CC(CO)Oc1nc(N2CCC(C)(C(N)=O)CC2)c2nc(-c3ccccc3Cl)n(-c3ccc(Cl)cc3)c2n1 (single isomer, unassigned) [Compound 7, 1-[8-(2-chlorophenyl)-9-(4-chlorophenyl)-2-(2-hydroxy-1-methyl-ethoxy)purin-6-yl]-4-methyl-piperidine-4-carboxamide] | 0.417 | 3.45
C[C@@H](CO)Oc1nc(N2CCC(C)(C(N)=O)CC2)c2nc(-c3ccccc3Cl)n(-c3ccc(Cl)cc3)c2n1 [Compound 82, 1-[8-(2-chlorophenyl)-9-(4-chlorophenyl)-2-[(1S)-2-hydroxy-1-methyl-ethoxy]purin-6-yl]-4-methyl-piperidine-4-carboxamide] | 0.753 | 4.49
O=S1(=O)CCC(Nc2nc(-n3ccnc3)nc3c2nc(-c2ccccc2Cl)n3-c2ccc(Cl)cc2)CC1 [Compound 164] | 1.66 | 22.8
CC1(C(N)=O)CCN(c2nc(OCCNS(C)(=O)=O)nc3c2nc(-c2ccccc2Cl)n3-c2ccc(Cl)cc2)CC1 [Compound 61, 1-[8-(2-chlorophenyl)-9-(4-chlorophenyl)-2-[2-(methanesulfonamido)ethoxy]purin-6-yl]-4-methyl-piperidine-4-carboxamide] | 0.645 | 16.7
CN(CCO)c1nc(NC2CN(C(N)=O)C2)c2nc(-c3ccccc3Cl)n(-c3ccc(Cl)cc3)c2n1 [Compound 176] | 15.6 | > 5000
FC(F)(F)C1CCN(c2nc(OC3CCCOC3)nc3c2nc(-c2ccccc2Cl)n3-c2ccc(Cl)cc2)CC1 (centres unmarked) [Compound 33, 8-(2-chlorophenyl)-9-(4-chlorophenyl)-2-tetrahydropyran-3-yloxy-6-[4-(trifluoromethyl)-1-piperidyl]purine] | 1.42 | 4.98
CCNC1(C(N)=O)CCN(c2nc(N(C)CCO)nc3c2nc(-c2ccccc2Cl)n3-c2ccc(Cl)cc2)CC1 [Compound 148] | 1 | 1.49
CC1(C(N)=O)CCN(c2nc(OC[C@@H]3CCCN3)nc3c2nc(-c2ccccc2Cl)n3-c2ccc(Cl)cc2)CC1 [Compound 160, 1-[8-(2-chlorophenyl)-9-(4-chlorophenyl)-2-((2S)-pyrrolidinemethoxy)-purin-6-yl]-4-methyl-piperidine-4-carboxamide] | 0.868 | 21.7
CN(CCO)c1nc(N2CC3(COC3)C2)c2nc(-c3ccccc3Cl)n(-c3ccc(Cl)cc3)c2n1 [Compound 188] | 0.31 | 1.84
CC(C)(O)COc1nc(N2CCC(C)(C(=O)O)CC2)c2nc(-c3ccccc3Cl)n(-c3ccc(Cl)cc3)c2n1 [Compound 220] | 3.47 | 23.2

SMILES | IC50 (human CB1 receptor [1]) [nM] | IC50 (human CB1 receptor [2]) [nM]
CN(CCO)c1nc(N2CCC(C)(C(N)=O)CC2)c2nc(-c3cncn3C)n(-c3ccc(Cl)cc3)c2n1 [Compound 58, 1-[9-(4-chlorophenyl)-2-[2-hydroxyethyl(methyl)amino]-8-(3-methylimidazol-4-yl)purin-6-yl]-4-methyl-piperidine-4-carboxamide] | 6.91 | 515
CC1(C(N)=O)CCN(c2nc(N3CC[C@@H](O)C3)nc3c2nc(-c2ccccc2Cl)n3-c2ccc(Cl)cc2)CC1 [Compound 93, 1-[8-(2-chlorophenyl)-9-(4-chlorophenyl)-2-[(3R)-3-hydroxypyrrolidin-1-yl]purin-6-yl]-4-methyl-piperidine-4-carboxamide] | 0.606 | 1.43
Cc1ncccc1-c1nc2c(N3CCC(C)(C(N)=O)CC3)nc(OCC(C)(C)O)nc2n1-c1ccc(Cl)cc1 [Compound 104, 1-[9-(4-chlorophenyl)-2-(2-hydroxy-2-methyl-propoxy)-8-(2-methyl-3-pyridyl)purin-6-yl]-4-methyl-piperidine-4-carboxamide] | 48.8 | > 5000
CCNC1(C(N)=O)CCN(c2nc(NCc3ccccc3)nc3c2nc(-c2ccccc2Cl)n3-c2ccc(Cl)cc2)CC1 [Compound 151] | 4.46 | 12.9
CC1(C(N)=O)CCN(c2nc(NCCS(C)(=O)=O)nc3c2nc(-c2ccccc2Cl)n3-c2ccc(Cl)cc2)CC1 [Compound 11, 1-[8-(2-chlorophenyl)-9-(4-chlorophenyl)-2-(2-methylsulfonylethylamino)purin-6-yl]-4-methyl-piperidine-4-carboxamide] | 2.01 | 30.1
CC1(C(N)=O)CCN(c2nc(N3CCC[C@H]3CO)nc3c2nc(-c2ccc(C#N)nc2)n3-c2ccc(Cl)cc2)CC1 [Compound 130, 1-[9-(4-chlorophenyl)-8-(6-cyano-3-pyridyl)-2-[(2S)-2-(hydroxymethyl)pyrrolidin-1-yl]purin-6-yl]-4-methyl-piperidine-4-carboxamide] | 0.592 | 1.2
CC(C)(O)COc1nc(N2CCC(C)(O)CC2)c2nc(-c3ccccc3Cl)n(-c3ccc(Cl)cc3)c2n1 [Compound 199] | 0.732 | 3.27
CC(C)Oc1nc(OC[C@H](C)O)nc2c1nc(-c1ccccc1Cl)n2-c1ccc(Cl)cc1 [Compound 101] | 1.53 | 16
CC(CO)Oc1nc(N2CCC(C(F)(F)F)CC2)c2nc(-c3ccccc3Cl)n(-c3ccc(Cl)cc3)c2n1 (single isomer, unassigned) [Compound 24, 2-[8-(2-chlorophenyl)-9-(4-chlorophenyl)-6-[4-(trifluoromethyl)-1-piperidyl]purin-2-yl]oxypropan-1-01] | 0.707 | 1.91
CN(CCO)c1nc(N2CC(C)(O)C2)c2nc(-c3ccccc3Cl)n(-c3ccc(Cl)cc3)c2n1 [Compound 74] | 0.574 | 3.02
CCOC1(C(N)=O)CCN(c2nc(N3CCC[C@H]3CO)nc3c2nc(-c2ccccc2Cl)n3-c2ccc(Cl)cc2)CC1 [Compound 177] | 0.436 | 1.88
COC1(C)CN(c2nc(OCC(C)(C)O)nc3c2nc(-c2ccc(C#N)nc2)n3-c2ccc(Cl)cc2)C1 [Compound 114, 5-[9-(4-chlorophenyl)-2-(2-hydroxy-2-methyl-propoxy)-6-(3-methoxy-3-methyl-azetidin-1-yl)purin-8-yl]pyridine-2-carbonitrile] | 3.87 | 14.1
CC(C)C(=O)Nc1nc(N2CCC(C)(C(N)=O)CC2)c2nc(-c3ccccc3Cl)n(-c3ccc(Cl)cc3)c2n1 [Compound 1, 1-[8-(2-chlorophenyl)-9-(4-chlorophenyl)-2-(2-methylpropanoylamino)purin-6-yl]-4-methyl-piperidine-4-carboxamide] | 4.3 | 15.2
FC(F)(F)C1CCN(c2nc(N3C[C@H]4CCC[C@H]4C3)nc3c2nc(-c2ccccc2Cl)n3-c2ccc(Cl)cc2)CC1 [Compound 30, 2-[(3aS,6aR)-3,3a,4,5,6,6a-hexahydro-1H-cyclopenta[c]pyrrol-2-yl]-8-(2-chlorophenyl)-9-(4-chlorophenyl)-6-[4-(trifluoromethyl)-1-piperidyl]purine] | 14.4 | 60
CCOC1(C(N)=O)CCN(c2nc(N3CCC[C@H]3CO)nc3c2nc(-c2ccc(C#N)nc2)n3-c2ccc(Cl)cc2)CC1 [Compound 133, 1-[9-(4-chlorophenyl)-8-(6-cyano-3-pyridyl)-2-[(2S)-2-(hydroxymethyl)pyrrolidin-1-yl]purin-6-yl]-4-ethoxy-piperidine-4-carboxamide] | 0.673 | 1.8
CC(C)(O)COc1nc(N2CCC(C(N)=O)CC2)c2nc(-c3ccccc3Cl)n(-c3ccc(Cl)cc3)c2n1 [Compound 198] | 7.69 | 31.5
CCNC1(C(N)=O)CCN(c2nc(OCCO)nc3c2nc(-c2ccccc2Cl)n3-c2ccc(Cl)cc2)CC1 [Compound 142] | 0.892 | 2.6
